Measured values reported in US20070128217A1 (priority 2003, published 2007).

Assays:
[1] = test system: recombinant human anti-SARS-CoV antibody 03-018; assay type: binding; parameters: Binding of antibody 03-018 to linear peptides of the N protein of SARS-CoV Urbani / Binding of antibody 03-018 to looped/cyclic peptides of the N protein of SARS-CoV Urbani: unit not given here
[2] = test system: antibodies in sera from SARS patients (sera 1a, 1b, 2, 6, 37, 62, London, SARS-yellow, SARS-green); assay type: binding, human; parameters: Binding of serum 6 to linear peptides of protein X1 of SARS-CoV Urbani / Binding of serum 37 to linear peptides of protein X1 of SARS-CoV Urbani / Binding of serum 6 to looped/cyclic peptide (PEPSCAN-ELISA) / Binding of serum 37 to looped/cyclic peptide (PEPSCAN-ELISA) / Binding of serum 37 to looped/cyclic peptides of protein X1 of SARS-CoV Urbani / Binding of serum 6 to linear peptides of protein X2 / Binding of serum 37 to linear peptides of protein X2 / Binding of serum 37 to looped/cyclic peptides of protein X2 of SARS-CoV Urbani / Binding of serum 6 to linear peptides of protein M of SARS-CoV Urbani / Binding of serum 37 to linear peptides of protein M of SARS-CoV Urbani / Binding of serum 6 to looped/cyclic peptides of protein M of SARS-CoV Urbani / Binding of serum 37 to looped/cyclic peptides of protein M of SARS-CoV Urbani / Binding of serum 6 to linear peptides of protein X3 of SARS-CoV Urbani / Binding of serum 37 to linear peptides of protein X3 of SARS-CoV Urbani / Binding of serum 37 to looped/cyclic peptides of protein X3 of SARS-CoV Urbani / Binding of serum 6 to linear peptides of protein X4 of SARS-CoV Urbani / Binding of serum 37 to linear peptides of protein X4 of SARS-CoV Urbani / Binding of serum 37 to looped/cyclic peptides of protein X4 of SARS-CoV Urbani / Binding of serum 6 to linear peptides of protein X5 of SARS-CoV Urbani / Binding of serum 37 to linear peptides of protein X5 of SARS-CoV Urbani / Binding of serum 37 to looped/cyclic peptides of protein X5 of SARS-CoV Urbani / Binding of serum 6 to linear peptides of protein N of SARS-CoV Urbani / Binding of serum 37 to linear peptides of protein N of SARS-CoV Urbani / Binding of serum 6 to linear peptide (PEPSCAN-ELISA) / Binding of serum 1a to looped/cyclic peptides of protein N of SARS-CoV Urbani / Binding of serum 1b to looped/cyclic peptides of protein N of SARS-CoV Urbani / Binding of serum 2 to looped/cyclic peptides of protein N of SARS-CoV Urbani / Binding of serum 6 to looped/cyclic peptides of protein N of SARS-CoV Urbani / Binding of serum 37 to looped/cyclic peptides of protein N of SARS-CoV Urbani / Binding of serum 62 to looped/cyclic peptides of protein N of SARS-CoV Urbani / Binding of serum London to looped/cyclic peptides of protein N of SARS-CoV Urbani / Binding of serum SARS-green to looped/cyclic peptides of protein N of SARS-CoV Urbani: unit not given here
[3] = test system: control sera (pooled serum of ten healthy LUMC hospital workers; commercial negative donor pooled serum from the Dutch bloodbank); assay type: binding, human; parameters: Binding of Control serum LUMC to linear peptides / Binding of Control serum Blood-bank to linear peptides / Binding of Control serum LUMC to looped peptides / Binding of Control Serum Blood-Bank to Looped peptides / Binding of Control serum LUMC to linear peptides of the protein M of SARS-CoV Urbani / Binding of Control serum Blood-bank to linear peptides of the protein M of SARS-CoV Urbani / Binding of Control serum LUMC to looped peptides of the protein M of SARS-CoV Urbani / Binding of Control Serum Blood-Bank to Looped peptides of the protein M of SARS-CoV Urbani: unit not given here
[4] = test system: rabbit serum obtained by immunizing a rabbit with the SARS-CoV strain Frankfurt 1; assay type: binding; parameters: Binding of a rabbit serum to linear peptides / Binding of a rabbit serum to looped peptides / Rabbit serum linear peptides / Rabbit serum looped peptides / Binding of a rabbit serum to linear peptides of protein N of SARS-CoV Urbani (Rabbit serum linear peptides) / Binding of a rabbit serum to looped/cyclic peptides of protein N of SARS-CoV Urbani (Rabbit serum looped peptides): unit not given here

MSDNGPQSNQRSAPR
Binding of antibody 03-018 to linear peptides of the N protein of SARS-CoV Urbani [1]: 0.1
Binding of antibody 03-018 to looped/cyclic peptides of the N protein of SARS-CoV Urbani [1]: 0.3
Binding of serum 1a to linear peptides of protein N of SARS-CoV Urbani [2]: 0.2
Binding of serum 1a to looped/cyclic peptides of protein N of SARS-CoV Urbani [2]: 0.2
Binding of serum 1b to linear peptides of protein N of SARS-CoV Urbani [2]: 0.1
Binding of serum 1b to looped/cyclic peptides of protein N of SARS-CoV Urbani [2]: 0.1
Binding of serum 2 to linear peptides of protein N of SARS-CoV Urbani [2]: 0.2
Binding of serum 2 to looped/cyclic peptides of protein N of SARS-CoV Urbani [2]: 0.4
Binding of serum 6 to linear peptides of protein N of SARS-CoV Urbani [2]: 0.2
Binding of serum 6 to looped/cyclic peptides of protein N of SARS-CoV Urbani [2]: 0.3
Binding of serum 37 to linear peptides of protein N of SARS-CoV Urbani [2]: 0.6
Binding of serum 37 to looped/cyclic peptides of protein N of SARS-CoV Urbani [2]: 0.4
Binding of serum 62 to linear peptides of protein N of SARS-CoV Urbani [2]: 0.6
Binding of serum 62 to looped/cyclic peptides of protein N of SARS-CoV Urbani [2]: 0.4
Binding of serum London to linear peptides of protein N of SARS-CoV Urbani [2]: 0.5
Binding of serum London to looped/cyclic peptides of protein N of SARS-CoV Urbani [2]: 0.4
Binding of serum SARS-green to linear peptides of protein N of SARS-CoV Urbani [2]: 0.3
Binding of serum SARS-green to looped/cyclic peptides of protein N of SARS-CoV Urbani [2]: 0.4
Binding of serum SARS-yellow to linear peptides of protein N of SARS-CoV Urbani [2]: 0.5
Binding of serum SARS-yellow to looped/cyclic peptides of protein N of SARS-CoV Urbani [2]: 0.1
Binding of Control Serum Blood-Bank to Looped peptides [3]: 0.6
Binding of Control serum Blood-bank to linear peptides [3]: 0.6
Binding of Control serum LUMC to linear peptides [3]: 0.5
Binding of Control serum LUMC to looped peptides [3]: 0.5
Binding of a rabbit serum to linear peptides of protein N of SARS-CoV Urbani (Rabbit serum linear peptides) [4]: 0.1
Binding of a rabbit serum to looped/cyclic peptides of protein N of SARS-CoV Urbani (Rabbit serum looped peptides) [4]: 0.4

GKGQQQQGQTVTKKS
Binding of antibody 03-018 to linear peptides of the N protein of SARS-CoV Urbani [1]: 0.1
Binding of antibody 03-018 to looped/cyclic peptides of the N protein of SARS-CoV Urbani [1]: 0.2
Binding of serum 1a to linear peptide (PEPSCAN-ELISA) [2]: 0.3
Binding of serum 1a to looped/cyclic peptides of protein N of SARS-CoV Urbani [2]: 1.4
Binding of serum 1b to linear peptide (PEPSCAN-ELISA) [2]: 0.1
Binding of serum 1b to looped/cyclic peptides of protein N of SARS-CoV Urbani [2]: 0.6
Binding of serum 2 to linear peptide (PEPSCAN-ELISA) [2]: 0.3
Binding of serum 2 to looped/cyclic peptides of protein N of SARS-CoV Urbani [2]: 0.7
Binding of serum 6 to linear peptide (PEPSCAN-ELISA) [2]: 0.3
Binding of serum 6 to looped/cyclic peptides of protein N of SARS-CoV Urbani [2]: 0.4
Binding of serum 37 to linear peptide (PEPSCAN-ELISA) [2]: 0.7
Binding of serum 37 to looped/cyclic peptides of protein N of SARS-CoV Urbani [2]: 0.5
Binding of serum 62 to linear peptide (PEPSCAN-ELISA) [2]: 0.7
Binding of serum 62 to looped/cyclic peptides of protein N of SARS-CoV Urbani [2]: 0.6
Binding of serum London to linear peptide (PEPSCAN-ELISA) [2]: 0.5
Binding of serum London to looped/cyclic peptides of protein N of SARS-CoV Urbani [2]: 0.4
Binding of serum SARS-green to linear peptide (PEPSCAN-ELISA) [2]: 0.2
Binding of serum SARS-green to looped/cyclic peptides of protein N of SARS-CoV Urbani [2]: 0.6
Binding of serum SARS-yellow to linear peptide (PEPSCAN-ELISA) [2]: 0.7
Binding of serum SARS-yellow to looped/cyclic peptides of protein N of SARS-CoV Urbani [2]: 0.5
Binding of Control Serum Blood-Bank to Looped peptides [3]: 0.6
Binding of Control serum Blood-bank to linear peptides [3]: 0.9
Binding of Control serum LUMC to linear peptides [3]: 1.0
Binding of Control serum LUMC to looped peptides [3]: 0.7
Binding of a rabbit serum to linear peptides of protein N of SARS-CoV Urbani (Rabbit serum linear peptides) [4]: 0.2
Binding of a rabbit serum to looped/cyclic peptides of protein N of SARS-CoV Urbani (Rabbit serum looped peptides) [4]: 0.4

EGALNTPKDHIGTRN
Binding of antibody 03-018 to linear peptides of the N protein of SARS-CoV Urbani [1]: 0.1
Binding of antibody 03-018 to looped/cyclic peptides of the N protein of SARS-CoV Urbani [1]: 0.3
Binding of serum 1a to linear peptides of protein N of SARS-CoV Urbani [2]: 0.2
Binding of serum 1a to looped/cyclic peptides of protein N of SARS-CoV Urbani [2]: 0.3
Binding of serum 1b to linear peptides of protein N of SARS-CoV Urbani [2]: 0.1
Binding of serum 1b to looped/cyclic peptides of protein N of SARS-CoV Urbani [2]: 0.2
Binding of serum 2 to linear peptides of protein N of SARS-CoV Urbani [2]: 0.2
Binding of serum 2 to looped/cyclic peptides of protein N of SARS-CoV Urbani [2]: 0.5
Binding of serum 6 to linear peptides of protein N of SARS-CoV Urbani [2]: 0.2
Binding of serum 6 to looped/cyclic peptides of protein N of SARS-CoV Urbani [2]: 0.3
Binding of serum 37 to linear peptides of protein N of SARS-CoV Urbani [2]: 0.6
Binding of serum 37 to looped/cyclic peptides of protein N of SARS-CoV Urbani [2]: 0.6
Binding of serum 62 to linear peptides of protein N of SARS-CoV Urbani [2]: 0.6
Binding of serum 62 to looped/cyclic peptides of protein N of SARS-CoV Urbani [2]: 0.3
Binding of serum London to linear peptides of protein N of SARS-CoV Urbani [2]: 0.6
Binding of serum London to looped/cyclic peptides of protein N of SARS-CoV Urbani [2]: 0.5
Binding of serum SARS-green to linear peptides of protein N of SARS-CoV Urbani [2]: 0.1
Binding of serum SARS-green to looped/cyclic peptides of protein N of SARS-CoV Urbani [2]: 0.4
Binding of serum SARS-yellow to linear peptides of protein N of SARS-CoV Urbani [2]: 0.5
Binding of serum SARS-yellow to looped/cyclic peptides of protein N of SARS-CoV Urbani [2]: 0.2
Binding of Control Serum Blood-Bank to Looped peptides [3]: 0.7
Binding of Control serum Blood-bank to linear peptides [3]: 0.7
Binding of Control serum LUMC to linear peptides [3]: 0.6
Binding of Control serum LUMC to looped peptides [3]: 0.5
Binding of a rabbit serum to linear peptides of protein N of SARS-CoV Urbani (Rabbit serum linear peptides) [4]: 0.1
Binding of a rabbit serum to looped/cyclic peptides of protein N of SARS-CoV Urbani (Rabbit serum looped peptides) [4]: 0.0

PQIAQFAPSASAFFG
Binding of antibody 03-018 to linear peptides of the N protein of SARS-CoV Urbani [1]: 0.1
Binding of antibody 03-018 to looped/cyclic peptides of the N protein of SARS-CoV Urbani [1]: 0.2
Binding of serum 1a to linear peptides of protein N of SARS-CoV Urbani [2]: 0.2
Binding of serum 1a to looped/cyclic peptides of protein N of SARS-CoV Urbani [2]: 0.4
Binding of serum 1b to linear peptides of protein N of SARS-CoV Urbani [2]: 0.1
Binding of serum 1b to looped/cyclic peptides of protein N of SARS-CoV Urbani [2]: 0.3
Binding of serum 2 to linear peptides of protein N of SARS-CoV Urbani [2]: 0.2
Binding of serum 2 to looped/cyclic peptides of protein N of SARS-CoV Urbani [2]: 0.4
Binding of serum 6 to linear peptides of protein N of SARS-CoV Urbani [2]: 0.1
Binding of serum 6 to looped/cyclic peptides of protein N of SARS-CoV Urbani [2]: 0.3
Binding of serum 37 to linear peptides of protein N of SARS-CoV Urbani [2]: 0.6
Binding of serum 37 to looped/cyclic peptides of protein N of SARS-CoV Urbani [2]: 0.7
Binding of serum 62 to linear peptides of protein N of SARS-CoV Urbani [2]: 0.6
Binding of serum 62 to looped/cyclic peptides of protein N of SARS-CoV Urbani [2]: 0.7
Binding of serum London to linear peptides of protein N of SARS-CoV Urbani [2]: 0.5
Binding of serum London to looped/cyclic peptides of protein N of SARS-CoV Urbani [2]: 0.5
Binding of serum SARS-green to linear peptides of protein N of SARS-CoV Urbani [2]: 0.6
Binding of serum SARS-green to looped/cyclic peptides of protein N of SARS-CoV Urbani [2]: 0.4
Binding of serum SARS-yellow to linear peptides of protein N of SARS-CoV Urbani [2]: 0.6
Binding of serum SARS-yellow to looped/cyclic peptides of protein N of SARS-CoV Urbani [2]: 0.5
Control Serum Blood-Bank Looped peptides [3]: 0.8
Control serum Blood-bank linear peptides [3]: 0.7
Control serum LUMC linear peptides [3]: 0.5
Control serum LUMC looped peptides [3]: 0.7
Binding of a rabbit serum to linear peptides of protein N of SARS-CoV Urbani (Rabbit serum linear peptides) [4]: 0.1
Binding of a rabbit serum to looped/cyclic peptides of protein N of SARS-CoV Urbani (Rabbit serum looped peptides) [4]: 0.5
